Laboratory results from publication PMC7046902, “Daphnane Diterpenoids from Trigonostemon lii and Inhibition Activities Against HIV-1” (Natural Products and Bioprospecting, 2020).
Values after ≈ are worked out from the molar mass of the structure shown.

System: C8166
Experiment: in vitro
Format: cell-based
Details: C8166 cells, MTT, 3 days
Protocol: (§1) Cellular toxicity of compounds was assessed by MTT method. Briefly, cells were seeded on a microtiter plate in the absence or presence of various concentrations of compounds in triplicate and incubated at 37 °C in a humid atmosphere of 5% CO2 for 3 days. Twenty microliters of MTT reagent (5 mg/mL in PBS) was added to each well, then incubated at 37 °C for 4 h, 100 μL of 50% DMF-20% SDS was added. After the formazan was dissolved completely, the plates were read on a Bio-Tek ELx 800 ELISA reader at 595 nm/630 nm (A595/630). The cytotoxic concentration that caused the reduction of viable cells by 50% (CC50) was calculated from dose–response curve.
as §1, with “b. MTT-based cytotoxicity assay. Cellular” for “Cellular”, “4h,” for “4 h,”, “595nm/630” for “595 nm/630”, “dose-response curve ^[2].” for “dose–response curve.”

**Q.** Which “cytotoxicity CC50” value does the source give for Cc1cn([C@H]2C[C@H](N=[N+]=[N-])[C@@H](CO)O2)c(=O)[nH]c1=O [AZT, reference compound] here?
**A.** 1006.69 µg/mL

System: not listed separately
Experiment: in vitro
Format: cell-based
Details: human; C8166 cells, MTT, 3 days; read-out: cytotoxicity CC50
Protocol: as §1
as §1, with “b. MTT-based cytotoxicity assay. Cellular” for “Cellular”, “4h,” for “4 h,”, “595nm/630” for “595 nm/630”, “dose-response curve ^[2].” for “dose–response curve.”

**Q.** Which CC50 does the source give for C=C1C=C2C3(O)C1OC(=O)C(C)CCCCCCC(C)CC(C)(O)C1(O)C4OC5(c6ccccc6)OC1C(C1OC1(CO)C3O)C2(O5)C4C (stereo not drawn) [Compound 1, Trigonolactone B] here?
**A.** 16.5 µg/mL (≈ 24100 nM)

**Q.** With C=C1C=C2C3(O)C1OC(=O)C(C)CCCCCCC(C)CC(O)(COC(=O)c1ccccc1O)C1(O)C4OC5(c6ccccc6)OC1C(C1OC1(CO)C3O)C2(O5)C4C (stereo not drawn) [Compound 2, Trigonolactone D] as the compound, how does the CC50 read?
**A.** 8.49 µg/mL (≈ 10400 nM)

**Q.** For C=C1C=C2C3(O)C1OC(=O)C(C)CCCCCCC(C)CC(O)(CO)C1(O)C4OC5(c6ccccc6)OC1C(C1OC1(CO)C3O)C2(O5)C4C (stereo not drawn) [Compound 3, Trigonolactone E], which CC50 is on record?
**A.** 17.5 µg/mL (≈ 25000 nM)

**Q.** With CC1CCCCCCC(C)C(=O)OC2C(=CCl)C=C3C2(O)C(O)C2(CO)OC2C2C4OC5(c6ccccc6)OC(C(C)C32O5)C4(O)C(C)(O)C1 (stereo not drawn) [Compound 4, Trigocherriolide B] as the compound, how does the CC50 read?
**A.** 14.9 µg/mL (≈ 20800 nM)

System: HIV-1IIIB
Experiment: microbe, parasite or virus in culture
Format: cell-based
Details: C8166 cells, HIV-1IIIB
Protocol: (§2) In the presence of 100 μL various concentrations of compounds, C8166 cells (4 × 10^5/mL) were infected with virus (HIV-1IIIB) at a multiplicity of infection (M.O.I) of 0.06. The final volume per well was 200 μL. Control assays were performed without the testing compounds in HIV-1IIIB infected and uninfected cultures. AZT was included as positive control. After 3 days of culture, the cytopathic effect (CPE) was measured by counting the number of syncytia (multinucleated giant cell). Percentage inhibition of syncytia formation was calculated and 50% effective concentration (EC50) was calculated.
as §2, with “c. Syncytia assay. In” for “In”, “(4×10^5/mL)” for “(4 × 10^5/mL)”, “calculated ^[3].” for “calculated.”

**Q.** For C=C1C=C2C3(O)C1OC(=O)C(C)CCCCCCC(C)CC(O)(COC(=O)c1ccccc1O)C1(O)C4OC5(c6ccccc6)OC1C(C1OC1(CO)C3O)C2(O5)C4C (stereo not drawn) [Compound 2, Trigonolactone D], which “selectivity index CC50/EC50” value is on record?
**A.** 4468.42

**Q.** For C=C1C=C2C3(O)C1OC(=O)C(C)CCCCCCC(C)CC(O)(CO)C1(O)C4OC5(c6ccccc6)OC1C(C1OC1(CO)C3O)C2(O5)C4C (stereo not drawn) [Compound 3, Trigonolactone E], which “selectivity index CC50/EC50” value is on record?
**A.** 29610.17

**Q.** Which “selectivity index CC50/EC50” value does the source give for CC1CCCCCCC(C)C(=O)OC2C(=CCl)C=C3C2(O)C(O)C2(CO)OC2C2C4OC5(c6ccccc6)OC(C(C)C32O5)C4(O)C(C)(O)C1 (stereo not drawn) [Compound 4, Trigocherriolide B] here?
**A.** 1811.43

Same assay, conditions: C8166 cells, HIV-1IIIB, M.O.I 0.06, 3 days

**Q.** For Cc1cn([C@H]2C[C@H](N=[N+]=[N-])[C@@H](CO)O2)c(=O)[nH]c1=O [AZT, reference compound], which “anti-HIV-1 EC50 (syncytia formation induced by HIV-1IIIB)” value is on record?
**A.** 0.00508 µg/mL

Same assay, conditions: Human immunodeficiency virus 1, 72 h; C8166 cells, HIV-1IIIB, M.O.I 0.06, 3 days; read-out: anti-HIV-1 EC50 (syncytia formation induced by HIV-1IIIB)

**Q.** Which EC50 does the source give for C=C1C=C2C3(O)C1OC(=O)C(C)CCCCCCC(C)CC(C)(O)C1(O)C4OC5(c6ccccc6)OC1C(C1OC1(CO)C3O)C2(O5)C4C (stereo not drawn) [Compound 1, Trigonolactone B] here?
**A.** 0.00106 µg/mL (≈ 1.55 nM)

**Q.** With C=C1C=C2C3(O)C1OC(=O)C(C)CCCCCCC(C)CC(O)(COC(=O)c1ccccc1O)C1(O)C4OC5(c6ccccc6)OC1C(C1OC1(CO)C3O)C2(O5)C4C (stereo not drawn) [Compound 2, Trigonolactone D] as the compound, how does the EC50 read?
**A.** 0.0019 µg/mL (≈ 2.32 nM)

**Q.** With C=C1C=C2C3(O)C1OC(=O)C(C)CCCCCCC(C)CC(O)(CO)C1(O)C4OC5(c6ccccc6)OC1C(C1OC1(CO)C3O)C2(O5)C4C (stereo not drawn) [Compound 3, Trigonolactone E] as the compound, how does the EC50 read?
**A.** 0.00059 µg/mL (≈ 0.844 nM)

**Q.** For CC1CCCCCCC(C)C(=O)OC2C(=CCl)C=C3C2(O)C(O)C2(CO)OC2C2C4OC5(c6ccccc6)OC(C(C)C32O5)C4(O)C(C)(O)C1 (stereo not drawn) [Compound 4, Trigocherriolide B], which EC50 is on record?
**A.** 0.00822 µg/mL (≈ 11.5 nM)

System: pNL4-3gp41(36G)V38E,N42S
Experiment: not given
Format: cell-based, HIV-1
Details: T20-resistant strain pNL4-3gp41(36G)V38E,N42S in C8166 cells

**Q.** For C=C1C=C2C3(O)C1OC(=O)C(C)CCCCCCC(C)CC(C)(O)C1(O)C4OC5(c6ccccc6)OC1C(C1OC1(CO)C3O)C2(O5)C4C (stereo not drawn) [Compound 1, Trigonolactone B], which “EC50 (syncytium formation)” value is on record?
**A.** 0.0033 µg/mL (≈ 4.83 nM)

**Q.** Which “EC50 (syncytium formation)” value does the source give for C=C1C=C2C3(O)C1OC(=O)C(C)CCCCCCC(C)CC(O)(COC(=O)c1ccccc1O)C1(O)C4OC5(c6ccccc6)OC1C(C1OC1(CO)C3O)C2(O5)C4C (stereo not drawn) [Compound 2, Trigonolactone D] here?
**A.** 0.00272 µg/mL (≈ 3.32 nM)

**Q.** Which “EC50 (syncytium formation)” value does the source give for C=C1C=C2C3(O)C1OC(=O)C(C)CCCCCCC(C)CC(O)(CO)C1(O)C4OC5(c6ccccc6)OC1C(C1OC1(CO)C3O)C2(O5)C4C (stereo not drawn) [Compound 3, Trigonolactone E] here?
**A.** 0.00443 µg/mL (≈ 6.34 nM)

**Q.** For CC1CCCCCCC(C)C(=O)OC2C(=CCl)C=C3C2(O)C(O)C2(CO)OC2C2C4OC5(c6ccccc6)OC(C(C)C32O5)C4(O)C(C)(O)C1 (stereo not drawn) [Compound 4, Trigocherriolide B], which “EC50 (syncytium formation)” value is on record?
**A.** 0.00297 µg/mL (≈ 4.14 nM)

System: pNL4-3gp41(36G)V38A,N42T
Experiment: not given
Format: cell-based, HIV-1
Details: T20-resistant strain pNL4-3gp41(36G)V38A,N42T in C8166 cells

**Q.** With C=C1C=C2C3(O)C1OC(=O)C(C)CCCCCCC(C)CC(C)(O)C1(O)C4OC5(c6ccccc6)OC1C(C1OC1(CO)C3O)C2(O5)C4C (stereo not drawn) [Compound 1, Trigonolactone B] as the compound, how does the “EC50 (syncytium formation)” value read?
**A.** 0.0026 µg/mL (≈ 3.81 nM)

**Q.** For C=C1C=C2C3(O)C1OC(=O)C(C)CCCCCCC(C)CC(O)(COC(=O)c1ccccc1O)C1(O)C4OC5(c6ccccc6)OC1C(C1OC1(CO)C3O)C2(O5)C4C (stereo not drawn) [Compound 2, Trigonolactone D], which “EC50 (syncytium formation)” value is on record?
**A.** 0.00583 µg/mL (≈ 7.12 nM)

System: fusion of H9/HIV-1IIIB cells with uninfected C8166 cells
Experiment: cells
Details: Human immunodeficiency virus 1, C8166, 6 h, read-out: EC50, inhibition of fusion of H9/HIV-1IIIB cells with uninfected C8166 cells
Protocol: C8166 cells (3 × 10^4) co-cultured with 1 × 10^4 virus (HIV-1IIIB) infected H9 cells in the presence or absence of the compound with various concentrations at 37 °C in a humidified atmosphere of 5% CO2. T20 was used as positive control. After 6 h incubation, the number of syncytia was scored under an inverted microscope [18].
Co-cultivation assay. C8166 cells (3×10^4) co-cultured with 1×10^4 virus (HIV-1IIIB) infected H9 cells in the presence or absence of the compound with various concentrations at 37 °C in a humidified atmosphere of 5% CO2. Dextran sulfate (DS) was used as positive control. After 6 h incubation, the number of syncytia was scored under an inverted microscope ^[3].

**Q.** With C=C1C=C2C3(O)C1OC(=O)C(C)CCCCCCC(C)CC(C)(O)C1(O)C4OC5(c6ccccc6)OC1C(C1OC1(CO)C3O)C2(O5)C4C (stereo not drawn) [Compound 1, Trigonolactone B] as the compound, how does the EC50 read?
**A.** 0.00225 µg/mL (≈ 3.3 nM)

**Q.** With C=C1C=C2C3(O)C1OC(=O)C(C)CCCCCCC(C)CC(O)(COC(=O)c1ccccc1O)C1(O)C4OC5(c6ccccc6)OC1C(C1OC1(CO)C3O)C2(O5)C4C (stereo not drawn) [Compound 2, Trigonolactone D] as the compound, how does the EC50 read?
**A.** 0.00462 µg/mL (≈ 5.64 nM)

**Q.** Which EC50 does the source give for C=C1C=C2C3(O)C1OC(=O)C(C)CCCCCCC(C)CC(O)(CO)C1(O)C4OC5(c6ccccc6)OC1C(C1OC1(CO)C3O)C2(O5)C4C (stereo not drawn) [Compound 3, Trigonolactone E] here?
**A.** 0.00185 µg/mL (≈ 2.65 nM)

**Q.** Which EC50 does the source give for CC1CCCCCCC(C)C(=O)OC2C(=CCl)C=C3C2(O)C(O)C2(CO)OC2C2C4OC5(c6ccccc6)OC(C(C)C32O5)C4(O)C(C)(O)C1 (stereo not drawn) [Compound 4, Trigocherriolide B] here?
**A.** 0.00873 µg/mL (≈ 12.2 nM)

Biological target: T1, purified recombinant HIV-1 RT (Human immunodeficiency virus type 1 group M subtype B, UniProt P04585)
T1 construct: purified recombinant HIV-1 RT; purchased Roche
Experiment: RT (reverse transcriptase) assay, ELISA RT kit
Format: biochemical
Details: read-out: EC50, inhibition of recombinant HIV-1 RT activity (converted)
Protocol: (§3) HIV-1 RT activity was measured by ELISA RT kit (Roche) using a commercially available kit according to the protocol provided by the manufacturer. Samples were incubated with DIG-labeled-reaction mixture at 37 °C for 15 h. Anti-DIG-POD solution was added afterward followed by substrate ABTS. The absorbance at 405/490 nm (A405/490) was determined in the ELISA reader.
as §3, with “e. RT (reverse transcriptase) assay. HIV-1” for “HIV-1”, “reader ^[4].” for “reader.”

**Q.** Which EC50 does the source give for C=C1C=C2C3(O)C1OC(=O)C(C)CCCCCCC(C)CC(C)(O)C1(O)C4OC5(c6ccccc6)OC1C(C1OC1(CO)C3O)C2(O5)C4C (stereo not drawn) [Compound 1, Trigonolactone B] here?
**A.** > 439 µM

**Q.** Which EC50 does the source give for C=C1C=C2C3(O)C1OC(=O)C(C)CCCCCCC(C)CC(O)(COC(=O)c1ccccc1O)C1(O)C4OC5(c6ccccc6)OC1C(C1OC1(CO)C3O)C2(O5)C4C (stereo not drawn) [Compound 2, Trigonolactone D] here?
**A.** 60.2 µM

**Q.** With C=C1C=C2C3(O)C1OC(=O)C(C)CCCCCCC(C)CC(O)(CO)C1(O)C4OC5(c6ccccc6)OC1C(C1OC1(CO)C3O)C2(O5)C4C (stereo not drawn) [Compound 3, Trigonolactone E] as the compound, how does the EC50 read?
**A.** > 429 µM

**Q.** Which EC50 does the source give for CC1CCCCCCC(C)C(=O)OC2C(=CCl)C=C3C2(O)C(O)C2(CO)OC2C2C4OC5(c6ccccc6)OC(C(C)C32O5)C4(O)C(C)(O)C1 (stereo not drawn) [Compound 4, Trigocherriolide B] here?
**A.** 278 µM
